Each block holds one molecule with its values, some of them ahead of it.
Legend:
human UGPPase = biological target: T1, human UGPPase (Homo sapiens, UniProt O95848); test: UGPPase activity measurement (G1P produced, coupled NADH read-out), substrate specificity and UDPG dependence, human recombinant enzyme; format: biochemical; settings: 5 mM of corresponding substrate, UDPG = 100%
T1 construct: made in house; host or cells: E. coli AD494(DE3), plasmid pET11a-AAD15563.1
T1 sequence (O95848 1-222): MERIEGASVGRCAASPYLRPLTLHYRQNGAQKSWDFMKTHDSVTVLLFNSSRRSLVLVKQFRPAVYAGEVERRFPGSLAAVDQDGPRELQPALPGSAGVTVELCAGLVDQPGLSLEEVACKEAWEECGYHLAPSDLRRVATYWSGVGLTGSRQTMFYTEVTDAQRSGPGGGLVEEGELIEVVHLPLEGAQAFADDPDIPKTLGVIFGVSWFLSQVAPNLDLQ
Procedure: (§1) UGPPase activity is defined based on the amount of G1P produced by the enzyme. The measurement is carried in two-step reactions according to the method reported by Rodriguez-Lopez et al. (11). In the first reaction, 50 μl of the reaction mixture consisting of a sample containing UGPPase, 0-20 mM concentration of a sugar nucleotide (UDP-, ADP- or GDP-glucose)(SIGMA), 20 mM MgCl2, and 50 mM Tris-HCl (pH 9.0), and the mixture is incubated at 37° C. for 30 minutes. As a blank, the same sample that has been boiled for two minutes to inactivate UGPPase is used. After the incubation period, the reaction is terminated by a two-minute boiling, and the mixture centrifuged at 20,000 g for 10 minutes at 4° C.
(§2) The reaction mixture is placed in a 96-well FluoroNunc™ plate (NUNC) and incubated at 37° C. for 10 minutes. This second reaction produces an equimolar amount of NADH to that of G1P produced in the first reaction. The amount of NADH is determined by measuring OD at 340 nm using a microplate reader (MOLECULAR DEVICE).
(§3) The activity was calculated as follows: 1U=[a]/30/0.03 where [a]is the amount in μmol of NADH produced in the reaction.
(§4) The above conditions of the first reaction were modified according to the purpose of each of the test, as specifically indicated below.

Porcine UGPPase = biological target: T2, Porcine UGPPase (Sus scrofa, UniProt Q865Y9); test: UGPPase activity measurement (G1P produced, coupled NADH read-out), substrate specificity and UDPG dependence, porcine enzyme; format: biochemical, pig; settings: 5 mM of corresponding substrate, UDPG = 100%
T2 construct: Fresh porcine kidney, 3.6-kg of weight, was homogenized; from tissue; host or cells: porcine kidney
T2 sequence (Q865Y9 1-222): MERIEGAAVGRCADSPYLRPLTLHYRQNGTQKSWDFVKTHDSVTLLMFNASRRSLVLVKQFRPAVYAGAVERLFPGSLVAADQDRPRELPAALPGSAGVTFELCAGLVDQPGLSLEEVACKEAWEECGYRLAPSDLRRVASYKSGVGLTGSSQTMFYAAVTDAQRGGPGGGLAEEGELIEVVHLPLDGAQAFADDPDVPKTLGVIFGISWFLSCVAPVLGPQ
Procedure: as §1, §2, §3, §4

[1] = Specific activity and optimal pH of purified UGPPase products; format: biochemical; settings: UGPPase activity
Procedure: as §1, §2, §3, §4

[2] = biological target: rabbit anti-hUGPPase antibody; test: hUGPPase ELISA; format: binding; settings: rabbit anti-hUGPPase antibody as solid phase, fusion protein as standard (FIG. 23)
Procedure: The rabbit anti-hUGPPase antibody prepared in (14) above was diluted with 50 mM NaHCO3, pH 9.6 to prepare a 25 μg/ml solution. The solution was added to the wells of a 96-well plate (NUNC), 100 μl each, and incubated at 37° C. for 1 hour for coating. The antibody solution was removed and 300 μl of a blocking buffer [1.0% (w/v) BSA, PBS, 10 mM glycine, pH 7.4] was added to each well and incubated at 37° C. for 1 hour for blocking.
For preparation of a standard, hUGPPase His-tag fusion protein was diluted stepwise to 10 μg/ml-0.1 ng/ml using a dilution buffer [20 mM Tris, 150 mM NaCl, 0.1% (w/v) BSA, pH7.4].
To use as samples, two types of E. coli AD494(DE3) cells, the one with introduced plasmid pET-19b AAD15563.1 and the other with plasmid pET-19b, respectively, were lysed and diluted to 50, 5, 0.5 and 0.05 μg/ml with the dilution buffer. Each well of the plate was removed of the blocking buffer and washed 3 times with 300 μl each of TTBS. To each well was added 100 μl of the standard or the sample solution and an incubation followed at 37° C. for 1 hour.
For detection of hUGPPase His-tag fusion protein, the HRP-conjugated rabbit anti-hUGPPase antibody prepared in (15) was used after dilution to 0.5 μg/ml with the dilution buffer. […] After a 5-min incubation at room temperature, 50 μl of 2M H2SO4 was added to each well to terminate the reaction, and OD at 450 nm was measured.

Molecule: Nc1ncnc2c1ncn2[C@@H]1O[C@H](COP(=O)(O)OP(=O)(O)OC[C@H]2OC(O)[C@H](O)[C@@H]2O)[C@@H](O)[C@H]1O (stereo partly shown) [ADP-ribose]
% activity with respect to UDPG (human UGPPase): 110%
% activity with respect to UDPG (Porcine UGPPase): 95%

Molecule: Nc1ncnc2c1ncn2[C@@H]1O[C@H](COP(=O)(O)OP(=O)(O)O)[C@@H](O)[C@H]1O [ADP]
% activity with respect to UDPG (human UGPPase): bdl
% activity with respect to UDPG (Porcine UGPPase): bdl

Molecule: Nc1ncnc2c1ncn2[C@@H]1O[C@H](COP(=O)(O)O)[C@@H](O)[C@H]1O [AMP, adenosine 5′-monophosphate]
% activity with respect to UDPG (human UGPPase): bdl
% activity with respect to UDPG (Porcine UGPPase): bdl

Molecule: Nc1ncnc2c1ncn2[C@@H]1O[C@H](COP(=O)(O)OP(=O)(O)OP(=O)(O)O)[C@@H](O)[C@H]1O [ATP]
% activity with respect to UDPG (human UGPPase): bdl
% activity with respect to UDPG (Porcine UGPPase): bdl

Molecule: O=[N+]([O-])c1ccc(OP(=O)(O)Oc2ccc([N+](=O)[O-])cc2)cc1 [Bis-PNPP]
% activity with respect to UDPG (human UGPPase): bdl
% activity with respect to UDPG (Porcine UGPPase): bdl

Molecule: Nc1ccn([C@@H]2O[C@H](COP(=O)(O)OP(=O)(O)O[C@H]3O[C@H](CO)[C@@H](O)[C@H](O)[C@H]3O)[C@@H](O)[C@H]2O)c(=O)n1 [CDPG]
% activity with respect to UDPG (human UGPPase): 3%
% activity with respect to UDPG (Porcine UGPPase): 2%

Molecule: Nc1nc2c(ncn2[C@@H]2O[C@H](COP(=O)(O)OP(=O)(O)O[C@H]3O[C@H](CO)[C@@H](O)[C@H](O)[C@H]3O)[C@@H](O)[C@H]2O)c(=O)[nH]1 [GDPG, GDP-glucose]
% activity with respect to UDPG (human UGPPase): ~10%
% activity with respect to UDPG (Porcine UGPPase): ~10%

Molecule: NC(=O)c1ccc[n+]([C@@H]2O[C@H](COP(=O)([O-])OP(=O)(O)OC[C@H]3O[C@@H](n4cnc5c(N)ncnc54)[C@H](O)[C@@H]3O)[C@@H](O)[C@H]2O)c1 [NAD]
% activity with respect to UDPG (human UGPPase): bdl
% activity with respect to UDPG (Porcine UGPPase): bdl

B1: human UGPPase: recombinant protein AAD15563.1 (SEQ ID NO:2) expressed in E. coli AD494(DE3), final MonoP-purified product (protein, listed as Homo sapiens)
chain: T1 sequence (O95848 1-222)
modifications: USPPase
Specific activity of the final purified product [1]: 6.7 U/mg
Specific activity of the final purified product ([1]; listed as r-hUGPPase): 6.74 U/mg

Results, then the molecule that gave them:

% activity with respect to UDPG (human UGPPase): bdl
% activity with respect to UDPG (Porcine UGPPase): bdl
Molecule: O=[N+]([O-])c1ccc(OP(=O)(O)O)cc1 [PNPP]

% activity with respect to UDPG (human UGPPase): bdl
% activity with respect to UDPG (Porcine UGPPase): bdl
Molecule: O=C(O)[C@H]1O[C@H](OP(=O)(O)OP(=O)(O)OC[C@H]2O[C@@H](n3ccc(=O)[nH]c3=O)[C@H](O)[C@@H]2O)[C@H](O)[C@@H](O)[C@@H]1O [UDP-glucuronic]

% activity with respect to UDPG (human UGPPase): bdl
% activity with respect to UDPG (Porcine UGPPase): bdl
Molecule: O=c1ccn([C@@H]2O[C@H](COP(=O)(O)OP(=O)(O)OP(=O)(O)O)[C@@H](O)[C@H]2O)c(=O)[nH]1 [UTP]

EC50 (effecter concentration for half-maximum response) of the ELISA system [2]: 0.2468 µg/mL
B2: hUGPPase His-tag fusion protein: His-tagged hUGPPase expressed from pET-19b AAD15563.1 in E. coli, purified; ELISA standard (protein)
chain: MGLLLPLPVPGLLLLEAETHPHFPCNHGQEGACTRHARVRAYPGPLVHRRKRPAWLWELAAPACPGAAMERIEGASVGRCAASPYLRPLTLHYRQNGAQKSWDFMKTHDSVTVLLFNSSRRSLVLVKQFRPAVYAGEVERRFPGSLAAVDQDGPRELQPALPGSAGVTVELCAGLVDQPGLSLEEVACKEAWEECGYHLAPSDLRRVATYWSGVGLTGSRQTMFYTEVTDAQRSGPGGGLVEEGELIEVVHLPLEGAQAFADDPDIPKTLGVIFGVSWFLSQVAPNLDLQ
modifications: left off: small tags and cut ends
notes: His-tagged hUGPPase expressed from pET-19b AAD15563.1 in E. coli, purified; ELISA standard
